For orientation: solubility means the dissolved amount per volume that the medium holds. What is called CLint scaled is a measure of how fast metabolising enzymes remove a compound, apart from limits set by blood flow. A lower CLint scaled goes with greater metabolic stability.

The values below come from publication PMC10800708, “Efficacies and ADME properties of redox active methylene blue and phenoxazine analogues for use in new antimalarial triple drug combinations with amino-artemisinins” (Frontiers in Pharmacology, 2024).

Data set [1] relates to Plasmodium falciparum NF54. Kind of data set: Parasite lactate dehydrogenase (pLDH) assay over 72 h, CQ-sensitive strain. Type of data set: cell-based. The method, then: The assay was performed in quadruplicate. The data were analyzed by nonlinear regression analysis using the GraphPad PRISM version 5.00 program to determine the IC50 of each compound.
The test system of data set [2] is Chinese Hamster Ovary (CHO) cell line, CHO-K1. Briefly: MTT cytotoxicity assay. It counts as cell-based. The conditions noted are these: for IC50: Cricetulus griseus, CHO cells, MTT; for Selectivity index CHO/resistant Pf strain: cytotoxicity IC50/activity IC50, CHO/DD2; for Selectivity index CHO/sensitive Pf strain: cytotoxicity IC50/activity IC50, CHO/NF54. The method, then: Cytotoxicity assays were conducted against the Chinese Hamster Ovary (CHO) cell line, ATCC CCL-61, strain CHO-K1. […] Cells were grown at 37°C in a humidified atmosphere of 5% CO2 and maintained by passage. Cells lines were seeded in 96-well microtitre plates at 10^4 cells/well in cell medium. […] DMSO (100 µL) was added to dissolve the MTT formazan precipitate, and the plates were gently agitated for 2 min to ensure homogeneity. Absorbance was measured at 540 nm using a Turner BioSystems, Inc. ModulusTM II Microplate Reader. The data were analyzed by nonlinear regression analysis using the GraphPad PRISM version 5.00 program to determine the IC50 of each compound.
On the technique in general: Formazan colour is commonly taken as a measure of viable cells.

Data set [3] in a line: Kinetic solubility in PBS. Type of data set: physicochemical. The conditions noted are these: phosphate buffer saline (PBS), aqueous buffer, kinetic from dmso stock. The method, then: . […] The aqueous mobile phase was water with 0.1% formic acid and the organic mobile phase was acetonitrile with 0.1% formic acid. The gradient method has a flow rate of 0.8 mL/min, with a total run time of 2.5 min starting at 5% organic and increasing to 95% at 1.4 min, holding for 40 s before returning to 5% to re-equilibrate the column. • ii. Lipophilicity. Stock solutions (10 mM) of compounds were diluted to 100 μM in 96-well deep-well plate containing 300 µL of 1-octanol and 300 µL of phosphate buffer at pH 7.4. The plate was agitated on an orbital shaker at 750 rpm for 2 h. The organic and buffer layers of each well were transferred separately to a new analysis plate. The samples were analysed with the HPLC diode array detection as described for kinetic solubility. Samples from both layers were analysed to determine LogD7.4 values. • iii. Passive permeability. A parallel artificial membrane permeation assay (PAMPA) was used to assess the passive permeability of compounds with a 96-well MultiScreen filter plate ([…] pore size, Millipore). The filter plate was precoated with 5% hexadecane in hexane. Stock solutions of compounds were diluted to 1 mM in a donor buffer (pH 6.5). Lucifer yellow was added to the apical wells of the precoated MultiScreen plate containing compound donor solution. The donor buffer solutions were spiked with each test compound (1 mM). The acceptor-buffer solution was prepared by adding 10 μL DMSO to 990 μL acceptor buffer (pH 7.4) and 250 μL were added to the basolateral (acceptor) wells. The donor plate was carefully inserted into the acceptor plate and incubated at room temperature for 4 h. After the incubation period, 50 μL of samples from the acceptor plate were transferred to a round bottom 96-well plate, together with 30 μL of donor buffer for matrix matching. Theoretical equilibrium samples for each test compound were prepared by adding 150 μL of donor solutions to 250 μL acceptor solutions and left at room temperature. These theoretical equilibrium samples represent complete transfer of the compound into the donor well. For the theoretical equilibrium samples, 80 μL were added to the analysis plate. Lastly, 160 μL of the internal standard carbamazepine (0.1 μM) was added to all acceptor and equilibrium samples. A portion of the sample containing Lucifer yellow was analyzed on a BioRad iMarkTM Microplate Absorbance Reader (BioRad, Hercules, CA, United States; […]. Samples were analysed using reverse phase Gemini NX-C18 column (5 μm, 2.1 mm × 50 mm) with a Shimadzu HPLC coupled with an AB Sciex 3200 Q TRAP MS). […]. Plasma stability. Stock solutions of compounds in DMSO (10 mM) were used to spike pooled human plasma. 90 μL of each sample was transferred in duplicate to 6 different wells of a 96-deep well plate. An aliquot of each sample was immediately quenched with ice cold acetonitrile containing the internal standard carbamazepine (0.1 µM), after which the plate was incubated in a water bath (37°C for […]). Aliquots of samples were removed at 5, 15, 40, 60 and 180 min and quenched with ice cold acetonitrile. After samples of the final time point were precipitated, the supernatant was transferred to a round bottom 96-well plate for analysis by LC-MS/MS using a reverse phase Gemini NX-C18 column (5 μm, 2.1 mm × 50 mm) with a Shimadzu HPLC coupled with an AB Sciex 3200 Q TRAP MS) operated at unit resolution in the multiple reaction monitoring (MRM) mode. The aqueous phase consisted of water with 0.1% formic acid and the organic mobile phase consisted of methanol and acetonitrile (1:1, (v/v)) with 0.1% formic acid. […]. The peak area ratios were used to calculate the amount of parent compound remaining and t1/2 in plasma, using the following equations.

Data set [4] in a line: Metabolic stability in mouse liver microsomes. Type of data set: in vitro ADME. The procedure: (§1) Eq. 4 Predicted t1/2 t1/2=−0.693/λ (4) Where λ is the slope of the Ln % parent remaining vs. time curve. • v. Plasma protein binding. Plasma protein binding was determined in pooled human plasma using an ultracentrifugation method. Stock solutions of test compounds (10 mM) were diluted in phosphate buffer and spiked into plasma in deep well 96-well plates (10 µM). An aliquot of each compound was immediately precipitated with ice cold acetonitrile containing the internal standard carbamazepine (0.1 μM). These served as total concentration samples. After incubation in a water bath at 37°C for 1 h, the samples were transferred to ultracentrifuge tubes in duplicate and centrifuged for 4 h at 37°C and 30,000 g (Optima L-80XP, Beckman). Following centrifugation, the supernatant was transferred to the plate containing the total concentration samples and precipitated with ice cold acetonitrile containing the internal standard. Analyte concentrations of all compounds were determined via LC-MS/MS (reverse phase Gemini NX-C18 column and Shimadzu HPLC coupled with an AB Sciex 3200 Q TRAP MS) as described above. • vi. Metabolic stability. A 5-point metabolic stability assay in human and mouse liver microsomes were performed in duplicate in 96-well plates. […] The cofactor NADPH was added, and the reactions were subsequently stopped at time points 5, 10, 30 and 60 min by removal of an aliquot and quenching with ice cold acetonitrile containing the internal standard. The supernatant of all samples was analysed via LC-MS/MS analysis (reverse phase Gemini NX-C18 column and Shimadzu HPLC and AB Sciex 3200 Q TRAP MS) as described above.

Data set [5] is described as follows: Metabolic stability in human liver microsomes. Type of data set: in vitro ADME. The method, then:
as §1
(In general: Microsomes from liver hold many membrane-bound enzymes, among them those of drug oxidation.)

Where [6] appears, read: CQ-sensitive NF54, pLDH 72 h, n = 3, read-out: Plasmodium falciparum IC50 NF54.
Where [7] appears, read: P. falciparum NF54, read-out: NF54 IC50 (dotted line in concentration-time figures).
Where [8] appears, read: PBS pH 2, read-out: Predicted solubility pH 2.
The mark [9] stands for this setting: PBS pH 6.5, read-out: Predicted solubility pH 6.5.
[10] abbreviates: PBS pH 7.4, read-out: Predicted solubility pH 7.4.

SMILES strings stand for the structures. Where two headings read alike, the source gives them in different places.

In the case of `CCN(CC)c1ccc2nc3ccc(=[N+](CC)CC)cc-3sc2c1` [AD01], the IC50 came to 0.0231 ± 0.0025 µM in data set [1] (setting [6]), 0.023 µM in data set [1] (setting [7]) and 74 ± 9.4 µM in data set [2]. In data set [2], the “Selectivity index CHO/resistant Pf strain” value was >1,000. Besides, in data set [2], the “Selectivity index CHO/sensitive Pf strain” value is >1,000. The solubility at 2 h in data set [3] (setting [8]), in data set [3] (setting [9]) and in data set [3] (setting [10]) was greater than 150 µM throughout. The CLint scaled stood at 80.6 mL/min/kg in data set [4] and 16.2 mL/min/kg in data set [5].
As to `CCN(CC)c1ccc2nc3c4ccccc4/c(=N\c4ccccn4)cc-3oc2c1` [PhX6], the values for the IC50 in data set [1] (setting [6]), in data set [1] (setting [7]) and in data set [2] were 0.0418 ± 4e-05 µM, 0.041 µM and 192 ± 4.6 µM, respectively. In data set [2], the “Selectivity index CHO/resistant Pf strain” value was >1,000. Moreover, the “Selectivity index CHO/sensitive Pf strain” value in data set [2] was >1,000. The solubility at 2 h in data set [3] (setting [8]) is greater than 150 µM; in data set [3] (setting [9]), less than 5 µM; in data set [3] (setting [10]) it was less than 5 µM. Moreover, the figures for the CLint scaled in data set [4] and in data set [5] were 88.2 mL/min/kg and 20.2 mL/min/kg, respectively.
